Measurements as given in PubChem BioAssay AID328 (DTP/NCI, 2004).
Several values for one entry are separate records, joined by “and”; a condition that tells them apart may be missing. Equal values may be shown once. Toxic doses and inconclusive results are not listed.

Test system: BDF1 mice, P388 leukemia ip, median survival T/C
Assay: NCI In Vivo Anticancer Drug Screen. Data for tumor model P388 Leukemia (intraperitoneal) in B6D2F1 (BDF1) mice
Conditions: endpoint: median survival time, higher = longer survival
Experimental: The antitumor activity of compounds was measured in mice bearing transplantable tumors. Survival or tumor size were measured and the results are expressed as the measurement made in the treated group (T) divided by the measurement made in the vehicle treated control group (C). The tumor model used in this assay is P388 Leukemia (intraperitoneal) in B6D2F1 (BDF1) mice

[1] = dose: 12.5 mg/kg/injection, schedule: Q01DX009 (ip), vehicle: Klucel (hydroxypropylcellulose) (HPC)
[2] = dose: 25.0 mg/kg/injection, schedule: Q01DX009 (ip), vehicle: Klucel (hydroxypropylcellulose) (HPC)
[3] = dose: 50.0 mg/kg/injection, schedule: Q01DX009 (ip), vehicle: saline with Tween-80
[4] = dose: 100.0 mg/kg/injection, schedule: Q04DX003 (ip), vehicle: saline with Tween-80
[5] = dose: 200.0 mg/kg/injection, schedule: Q04DX003 (ip), vehicle: saline with Tween-80
[6] = dose: 300.0 mg/kg/injection, schedule: Q01DX009 (ip), vehicle: saline with Tween-80
[7] = dose: 400.0 mg/kg/injection, schedule: Q04DX003 (ip), vehicle: saline with Tween-80
[8] = dose: 100.0 mg/kg/injection, schedule: Q01DX009 (ip), vehicle: saline with Tween-80
[9] = dose: 200.0 mg/kg/injection, schedule: Q01DX009 (ip), vehicle: saline with Tween-80
[10] = dose: 100.0 mg/kg/injection, schedule: Q01DX009 (ip), vehicle: saline
[11] = dose: 200.0 mg/kg/injection, schedule: Q01DX009 (ip), vehicle: saline
[12] = dose: 100.0 mg/kg/injection, schedule: Q04DX003 (ip), vehicle: saline
[13] = dose: 200.0 mg/kg/injection, schedule: Q04DX003 (ip), vehicle: saline
[14] = dose: 400.0 mg/kg/injection, schedule: Q04DX003 (ip), vehicle: saline

COc1ccc(OC)c(/C=C/[N+](=O)[O-])c1
T/C [1]: 108 % of control
T/C [2]: 113 % of control and 120 % of control
T/C (dose: 50.0 mg/kg/injection, schedule: Q01DX009 (ip), vehicle: Klucel (hydroxypropylcellulose) (HPC)): 113 % of control
T/C (dose: 100.0 mg/kg/injection, schedule: Q01DX009 (ip), vehicle: Klucel (hydroxypropylcellulose) (HPC)): 116 % of control

OCC1CN(c2ccccc2)N=N1 (stereo unspecified)
T/C (dose: 50.0 mg/kg/injection, schedule: Q04DX002 (ip), vehicle: saline + alcohol): 107 % of control
T/C (dose: 100.0 mg/kg/injection, schedule: Q04DX002 (ip), vehicle: saline + alcohol): 107 % of control
T/C (dose: 200.0 mg/kg/injection, schedule: Q04DX002 (ip), vehicle: saline + alcohol): 116 % of control

Cc1cccc(NC=O)c1
T/C [3]: 109 % of control
T/C (dose: 75.0 mg/kg/injection, schedule: Q01DX009 (ip), vehicle: saline with Tween-80): 113 % of control
T/C [4]: 115 % of control
T/C (dose: 115.0 mg/kg/injection, schedule: Q01DX009 (ip), vehicle: saline with Tween-80): 104 % of control
T/C [5]: 96 % of control
T/C (dose: 225.0 mg/kg/injection, schedule: Q01DX009 (ip), vehicle: saline with Tween-80): 109 % of control
T/C [6]: 113 % of control
T/C [7]: 96 % of control

OC(CNc1ccc(CSc2ccccc2)cc1)c1ccccc1 (stereo unspecified)
T/C (dose: 50.0 mg/kg/injection, schedule: Q01DX009 (ip), vehicle: other): 120 % of control
T/C (dose: 100.0 mg/kg/injection, schedule: Q01DX009 (ip), vehicle: other): 123 % of control

Clc1ncc(Br)c(Cl)n1
T/C (dose: 2.7 mg/kg/injection, schedule: Q01DX009 (ip), vehicle: Klucel (hydroxypropylcellulose) (HPC)): 95 % of control
T/C (dose: 4.1 mg/kg/injection, schedule: Q01DX009 (ip), vehicle: Klucel (hydroxypropylcellulose) (HPC)): 95 % of control
T/C (dose: 8.2 mg/kg/injection, schedule: Q01DX009 (ip), vehicle: Klucel (hydroxypropylcellulose) (HPC)): 109 % of control
T/C (dose: 8.3 mg/kg/injection, schedule: Q01DX009 (ip), vehicle: Klucel (hydroxypropylcellulose) (HPC)): 100 % of control
T/C [1]: 100 % of control and 109 % of control
T/C (dose: 13.75 mg/kg/injection, schedule: Q04DX003 (ip), vehicle: Klucel (hydroxypropylcellulose) (HPC)): 104 % of control
T/C (dose: 18.0 mg/kg/injection, schedule: Q01DX009 (ip), vehicle: Klucel (hydroxypropylcellulose) (HPC)): 100 % of control
T/C (dose: 18.75 mg/kg/injection, schedule: Q01DX009 (ip), vehicle: Klucel (hydroxypropylcellulose) (HPC)): 115 % of control
T/C (dose: 27.5 mg/kg/injection, schedule: Q04DX003 (ip), vehicle: Klucel (hydroxypropylcellulose) (HPC)): 100 % of control
T/C (dose: 55.0 mg/kg/injection, schedule: Q04DX003 (ip), vehicle: Klucel (hydroxypropylcellulose) (HPC)): 108 % of control
T/C (dose: 80.0 mg/kg/injection, schedule: Q04DX003 (ip), vehicle: Klucel (hydroxypropylcellulose) (HPC)): 108 % of control
T/C (dose: 125.0 mg/kg/injection, schedule: Q04DX003 (ip), vehicle: Klucel (hydroxypropylcellulose) (HPC)): 100 % of control

COC1(C(C)(C)C)C=C(C)/C(=C2\C(=O)Oc3c2cc(C)cc3C(C)(C)C)O1 (stereo unspecified)
T/C [3]: 99 % of control
T/C [8]: 92 % of control
T/C [9]: 96 % of control

O=S(=O)(OC1=CCCCC1)C(F)(F)F
T/C (dose: 50.0 mg/kg/injection, schedule: Q01DX009 (ip), vehicle: saline): 104 % of control
T/C [10]: 107 % of control
T/C [11]: 109 % of control

Nc1nc(Cl)c(C=O)c(Cl)n1
T/C [3]: 241 % of control

Cc1cc(N)on1
T/C [10]: 100 % of control
T/C [12]: 109 % of control
T/C [11]: 96 % of control
T/C [13]: 109 % of control
T/C [14]: 109 % of control

CCC(=O)OC1CC2C3CCC4=CC(=O)CCC4(C)C3CCC2(C)C1OC(=O)CC (stereo unspecified)
T/C (dose: 100.0 mg/kg/injection, schedule: Q04DX003 (ip), vehicle: Klucel (hydroxypropylcellulose) (HPC)): 100 % of control
T/C (dose: 200.0 mg/kg/injection, schedule: Q01DX009 (ip), vehicle: Klucel (hydroxypropylcellulose) (HPC)): 109 % of control
T/C (dose: 200.0 mg/kg/injection, schedule: Q04DX003 (ip), vehicle: Klucel (hydroxypropylcellulose) (HPC)): 104 % of control
T/C (dose: 400.0 mg/kg/injection, schedule: Q01DX009 (ip), vehicle: Klucel (hydroxypropylcellulose) (HPC)): 91 % of control and 122 % of control
T/C (dose: 400.0 mg/kg/injection, schedule: Q04DX003 (ip), vehicle: Klucel (hydroxypropylcellulose) (HPC)): 104 % of control

O=C(O)CNCc1ccc(Cl)cc1
T/C (dose: 50.0 mg/kg/injection, schedule: Q04DX003 (ip), vehicle: water): 103 % of control
T/C (dose: 100.0 mg/kg/injection, schedule: Q04DX003 (ip), vehicle: water): 90 % of control
T/C (dose: 200.0 mg/kg/injection, schedule: Q04DX003 (ip), vehicle: water): 94 % of control

Cc1nn2c(=O)[nH]cnc2c1Cl
T/C [8]: 93 % of control
T/C [9]: 100 % of control
T/C [5]: 95 % of control
T/C [7]: 109 % of control

CC(=O)Nc1ccc(OCCOC(=O)Nc2ccc(C)cc2[N+](=O)[O-])cc1
T/C [1]: 105 % of control
T/C [2]: 93 % of control

C[N+](C)(CC(=O)Nc1ccc(Cl)cc1)CC(=O)c1ccc(Cl)c(Cl)c1
T/C (dose: 100.0 mg/kg/injection, schedule: Q01DX001 (ip), vehicle: saline sonified): 104 % of control
T/C (dose: 200.0 mg/kg/injection, schedule: Q01DX001 (ip), vehicle: saline sonified): 95 % of control
T/C (dose: 400.0 mg/kg/injection, schedule: Q01DX001 (ip), vehicle: saline sonified): 100 % of control

COC1=C(OC)C(=O)C2=C(OCCO2)C1=O
T/C (dose: 100.0 mg/kg/injection, schedule: Q01DX001 (ip), vehicle: saline with Tween-80): 104 % of control

CCOC(=O)c1ccc(N(CCOS(C)(=O)=O)CCOS(C)(=O)=O)cc1
T/C (dose: 66.0 mg/kg/injection, schedule: Q01DX008 (ip), vehicle: saline with Tween-80): 200 % of control
T/C (dose: 100.0 mg/kg/injection, schedule: Q01DX008 (ip), vehicle: saline with Tween-80): 222 % of control
T/C (dose: 132.0 mg/kg/injection, schedule: Q04DX003 (ip), vehicle: saline with Tween-80): 177 % of control
T/C (dose: 150.0 mg/kg/injection, schedule: Q01DX008 (ip), vehicle: saline with Tween-80): 272 % of control
T/C [5]: 190 % of control
T/C (dose: 300.0 mg/kg/injection, schedule: Q04DX003 (ip), vehicle: saline with Tween-80): 195 % of control

Cc1c(C)c2ccc(N)cc2[nH]c1=O
T/C (dose: 2.0 mg/kg/injection, schedule: Q01DX009 (ip), vehicle: saline): 118 % of control
T/C (dose: 4.0 mg/kg/injection, schedule: Q01DX009 (ip), vehicle: saline): 105 % of control
T/C (dose: 8.0 mg/kg/injection, schedule: Q01DX009 (ip), vehicle: saline): 99 % of control
T/C (dose: 16.0 mg/kg/injection, schedule: Q01DX009 (ip), vehicle: saline): 118 % of control
T/C (dose: 25.0 mg/kg/injection, schedule: Q04DX003 (ip), vehicle: saline): 98 % of control
T/C (dose: 50.0 mg/kg/injection, schedule: Q04DX003 (ip), vehicle: saline): 106 % of control
T/C [12]: 106 % of control
T/C [13]: 104 % of control
T/C [14]: 107 % of control

CCOC(=O)c1c(C)[nH]c(C)c1-c1ccccc1
T/C (dose: 100.0 mg/kg/injection, schedule: Q01DX001 (ip), vehicle: Klucel (hydroxypropylcellulose) (HPC)): 109 % of control
T/C (dose: 200.0 mg/kg/injection, schedule: Q01DX001 (ip), vehicle: Klucel (hydroxypropylcellulose) (HPC)): 109 % of control
T/C (dose: 400.0 mg/kg/injection, schedule: Q01DX001 (ip), vehicle: Klucel (hydroxypropylcellulose) (HPC)): 109 % of control

COc1cc(Cl)ccc1C
T/C [3]: 100 % of control
T/C (dose: 50.0 mg/kg/injection, schedule: Q04DX003 (ip), vehicle: saline with Tween-80): 104 % of control
T/C (dose: 88.0 mg/kg/injection, schedule: Q01DX009 (ip), vehicle: saline with Tween-80): 108 % of control and 114 % of control
T/C [8]: 120 % of control
T/C [4]: 113 % of control
T/C (dose: 132.0 mg/kg/injection, schedule: Q01DX009 (ip), vehicle: saline with Tween-80): 108 % of control
T/C [9]: 120 % of control and 123 % of control
T/C [5]: 118 % of control
T/C [6]: 123 % of control
